From US12643922B2 (VIRGINIA COMMONWEALTH UNIVERSITY, priority 2021, dated 2026)
Like-named read-outs stand apart in the source and are kept apart here.

Legend:
UA sulfation = assay: Inhibition of UA sulfation (formation of UA-sulfate by HPLC-MS); type: biochemical; conditions: UA concentration 2 μM, triplicate
Protocol: FIG. 5. IC50 of glycyrrhetinic acid. UA concentration was 2 μM. Determination was done in triplicate.
Table 1. IC50 values for several inhibitors of UA sulfation. UA concentration was 2 μM. Determinations were done in triplicate, and formation of UA-sulfate was determined by HPLC-MS followed by nonlinear regression with the Hill equation.

[1] = colour and water solubility with time
[2] = Solubility of ursolic acid salts in hydrophilic solvents (clear saturated solution)
Protocol: The salts were weighed, mixed with the solvent, and incubated to reach clear saturated solution (37° C. for water and ethanol; 55° C. for PEG 400 and glycerol).

[3] = cited from earlier work
[4] = cited from earlier work; remark: listed apart in the source
[5] = background statement; cited from earlier work

SMILES: CC(=O)O[C@H]1CC[C@@]2(C)C(=CC(=O)[C@@H]3[C@@H]2CC[C@]2(C)C(=O)CC[C@@H]32)C1 [7-oxo-DHEA acetate]
- Hill slope (UA sulfation; Hill equation): 1.2 ± 0.06
- IC50 (UA sulfation; Hill equation, read-out: IC50): 20.2 ± 3.6 µM

SMILES: C[C@]12CC[C@H](O)CC1=CC(=O)C1C2CC[C@]2(C)C(=O)CCC12 (some centres unmarked) [7-oxo-DHEA]
- Hill slope (UA sulfation; Hill equation): 1.2 ± 0.4
- IC50 (UA sulfation; Hill equation, read-out: IC50): 38.1 ± 1.2 µM

SMILES: C[C@]12CC[C@H](O)CC1=CC[C@@H]1[C@@H]2CC[C@]2(C)C(=O)CC[C@@H]12 [DHEA, dehydroepiandrosterone]
- Hill slope (UA sulfation; Hill equation): 1.4 ± 0.1
- IC50 (UA sulfation; Hill equation, read-out: IC50): 1.2 ± 0.1 µM

SMILES: CC1(C)[C@@H](O)CC[C@]2(C)[C@H]3C(=O)C=C4[C@@H]5C[C@@](C)(C(=O)O)CC[C@]5(C)CC[C@@]4(C)[C@]3(C)CC[C@@H]12 [Glycyrrhetinic acid]
- IC50 (UA sulfation; 95% CI, read-out: IC50 (FIG. 5)): 18.6 µM
- Hill slope (UA sulfation; Hill equation): 4.8 ± 3.5
- IC50 (UA sulfation; Hill equation, read-out: IC50): 14 ± 0.2 µM

SMILES: C=C1C[C@@]23CC[C@H]4[C@@](C)(CCC[C@@]4(C)C(=O)O)[C@@H]2CC[C@]1(O)C3 [Steviol]
- Hill slope (UA sulfation; Hill equation): 1.4 ± 0.1
- IC50 (UA sulfation; Hill equation, read-out: IC50): 11.8 ± 1.8 µM

SMILES: C[C@H]1CC[C@]2(NC1)O[C@H]1C[C@H]3[C@@H]4CC[C@H]5C[C@@H](O)CC[C@]5(C)[C@H]4CC[C@]3(C)[C@H]1[C@@H]2C [Tomatidine]
- Hill slope (UA sulfation; Hill equation): 0.5 ± 0.03
- IC50 (UA sulfation; Hill equation, read-out: IC50): 84.8 ± 5.1 µM

SMILES: C[C@H]1[C@H](C)CC[C@]2(C(=O)O)CC[C@]3(C)C(=CC[C@@H]4[C@@]5(C)CC[C@H](O)C(C)(C)[C@@H]5CC[C@]43C)[C@H]12 [UAdC-O, ursolic acid dicholine complex]
- stability [1]: unstable

SMILES: C[C@H]1[C@H](C)CC[C@]2(C(=O)O)CC[C@]3(C)C(=CC[C@@H]4[C@@]5(C)CC[C@H](O)C(C)(C)[C@@H]5CC[C@]43C)[C@H]12 [UAdC-W, ursolic acid dicholine hydroxide hydrated complex]
- stability [1]: stable

SMILES: C[C@H]1[C@H](C)CC[C@]2(C(=O)[O-])CC[C@]3(C)C(=CC[C@@H]4[C@@]5(C)CC[C@H](O)C(C)(C)[C@@H]5CC[C@]43C)[C@H]12.C[N+](C)(C)CCO [UAmC, monocholine ursolate]
- PEG400 solubility compared to UAK ([2]; PEG400, data not shown): lower solubility
- ethanol solubility, comparison ([2]; ethanol, FIG. 1B): less than UAK

SMILES: C[C@@H]1CC[C@]2(C(=O)O)CC[C@]3(C)C(=CCC4[C@@]5(C)CC[C@H](O)C(C)(C)C5CC[C@]43C)C2[C@H]1C (some centres unmarked) [Ursolic acid]
- pKa of carboxylic acid [3]: 4.7
- oral bioavailability [4]: less than 1%
- solubility in water [5]: less than 1 μg/mL
